“And” between values parts separate entries of the source, which are not always exact repeats. Equal entries are not always repeated. Marks after values point to notes of the source that are not given here.
Experiments:
NMDA receptor = test: Inhibition of NMDA/glycine-induced increases in intracellular calcium in cultured rat cerebellar granule cells (RCGC); assay type: cell-based; conditions: NMDA/glycine-induced increases in intracellular calcium, cultured rat cerebellar granule cells; read-out: IC50 (μM) vs. NMDA
[1] = biological target: NMDA receptor-ionophore complex (site labeled by [3H]MK-801); test: Inhibition of [3H]MK-801 binding in rat cortical/hippocampal washed membrane preparations; conditions: for IC50: read-out: IC50 (μM) vs. [3H]MK-801, rat cortical/hippocampal washed membranes

Compound | IC50 (NMDA receptor) | IC50 [1] | % inhibition of [3H]MK-801 binding at the stated concentration (IC50 study incomplete) ([1]; at 100 μM)
CC(N)CC(c1cccc(Cl)c1)c1cccc(Cl)c1 (centres unmarked) [Compound 43] | 0.232 µM | 7.5 µM | –
CN(CCC(c1cccc(F)c1)c1cccc(F)c1)Cc1ccccc1 [Compound 105] | 1.03 µM | > 3 µM | –
NCCOC(c1ccccc1)c1ccccc1 [Compound 88] | 2.5 µM | 10.6 µM | –
CC(N)C(C)C(c1cccc(F)c1)c1cccc(F)c1 (centres unmarked) [Compound 38, 3,3-bis(3-fluorophenyl)-1,2-dimethyl-1-propylamine] | 0.407 µM | 2.3 µM | –
CNCCC(c1cccc(F)c1)c1cccc(OC)c1 (centres unmarked) [Compound 142] | 1.01 µM | 1.54 µM | –
CC(C)C(NCCC(c1ccccc1)c1ccccc1)c1ccccc1 (centres unmarked) [Compound 158] | 0.351 µM | 39.6 µM | –
Fc1cccc(C(c2cccc(F)c2)C2CCCNC2)c1 (centres unmarked) [Compound 111] | 0.645 µM and 0.79 µM | 0.167 µM | –
NCCC(c1cccc(F)c1)c1ccccc1O (centres unmarked) [Compound 103, 3-(2-hydroxyphenyl)-3-(3-fluorophenyl)-1-propylamine] | 0.38 µM | 0.661 µM | –
NCCC(Oc1cccc(F)c1)c1cccc(Cl)c1 (centres unmarked) [Compound 150] | 0.195 µM | 0.351 µM | –
COc1ccccc1CC(=O)NC(Cc1ccccc1)C(=O)NCCCCCNCCCNCCCNC(=O)C(N)CCCNC(=N)N (centres unmarked) [Compound 6] | 0.129 µM | > 100 µM | (0% at 100 μM)^d
CCC(NCCC(c1ccccc1)c1ccccc1)c1cccc(Cl)c1 (centres unmarked) [Compound 159] | 0.185 µM | 10.4 µM | –
Fc1cccc(C(=C2CCCNC2)c2cccc(F)c2)c1 [Compound 109] | 1.95 µM | 1.08 µM | –
NCCC(c1ccccc1F)c1ccccc1F [Compound 53, 3,3-bis(2-fluorophenyl)-1-propylamine] | 0.217 µM | 4.2 µM | –
CC(C)(CN)C(c1cccc(F)c1)c1cccc(F)c1 [Compound 41, 3,3-bis(3-fluorophenyl)-2,2-dimethyl-1-propylamine] | 0.724 µM | 14 µM | –
CCC(N)CC(c1cccc(F)c1)c1cccc(F)c1 (centres unmarked) [Compound 23, 3,3-bis(3-fluorophenyl)-1-ethyl-1-propylamine] | 0.267 µM | 5.4 µM | –
CCC(CCN)(c1cccc(F)c1)c1cccc(F)c1 [Compound 82, 3,3-bis(3-fluorophenyl)-3-ethyl-1-propylamine] | 0.106 µM | 0.794 µM | –
Cc1ccccc1OC(CCN)c1cccc(F)c1 (centres unmarked) [Compound 181] | 0.081 µM | 0.632 µM | –
NCCC(c1cc(F)cc(F)c1)c1cc(F)cc(F)c1 [Compound 95, 3,3-bis(3,5,difluorophenyl)-1-propylamine] | 0.311 µM | 3 µM | –
CCC(NCCC(c1ccccc1)c1ccccc1)c1ccccc1F (centres unmarked) [Compound 163] | 0.326 µM | 10.3 µM | –
COc1ccc(C(CCN)c2cccc(F)c2)cc1 (centres unmarked) [Compound 26, 3-(3-fluorophenyl)-3-(4-methoxyphenyl)-1-propylamine] | 27 µM | 34 µM | –
NCCc1ccccc1Oc1ccccc1 [Compound 132] | 1.3 µM | 6.4 µM | –
COc1ccccc1C(CCN)c1ccccc1 (centres unmarked) [Compound 97, 3-(2-methoxyphenyl)-3-phenyl-1-propylamine] | 0.41 µM | 2.6 µM | –
NCC(c1ccc(F)cc1)c1ccc(F)cc1 [Compound 99] | > 100 µM | 105 µM | –
NCC=C(c1ccccc1)c1cccc(F)c1 (racemic) [Compound 107, 3-(3-fluorophenyl)-3-phenyl-prop-2-ene-1-amine] | 2.67 µM | 3.83 µM | –
CCC(NCCC(c1ccccc1)c1ccccc1)c1ccc(OC)cc1 (centres unmarked) [Compound 166] | 0.619 µM | 36.7 µM | –
CN[C@@H](C)CC(c1cccc(F)c1)c1cccc(F)c1 [Compound 69] | 0.224 µM | 0.366 µM | –

Reference: patent US6750244B2, “Compounds active at a novel site on receptor-operated calcium channels useful for treatment of neurological disorders and diseases” (NPS Pharmaceuticals, Inc., priority 1993, dated 2004)
